Experimental data taken from patent US4012395A, “Process for preparing thiazolidinone acetic acid derivatives” (Warner-Lambert Company, priority 1974, dated 1977).

Legend:
in vivo = details: rat, iv
[1] = test system: urine excreted by each kidney, mongrel dogs; experiment: Diuresis in anesthetized dogs, intravenous administration; assay type: in vivo, dog (male and female mongrel); details: i.v.; for urinary excretion / urinary flow increased to: 32.0 mg/kg; for dose dependency of diuretic effect, r: 2.0 up to 64.0 mg/kg
Experimental: Experiments were performed in male and female mongrel dogs, anesthetized with pentobarbital. The body weight was between 9 and 11 kg. After laparotomy the proximal part of the ureters was canulated and the urine excreted by each kidney collected in periods of 10 minutes. Arterial and venous pressure were recorded throughout the experiment. At the beginning 1.5 ml/kg of a tempered saline solution were infused for one and a half hour. After constant urine-flow was reached, the diuretics were injected into the femoral vein. The initial dose was 2.0 mg/kg which was increased with the factor 2 up to 64.0 mg/kg. Two animals were used for each dose level.

[2] = test system: diuresis of conscious dogs; experiment: Diuresis in conscious dogs, intragastric administration; assay type: in vivo, dog (unanesthetized adult female Beagle); details: for maximal achievable effect on the diuresis (urine excretion): 25.0 mg/kg
Experimental: Experiments were carried out in 5 unanesthetized adult female Beagle dogs, weighing 15 to 22 kg, which were trained to lie on a table without fixation. The animals were not episiotomized. A rubber catheter was introduced into the bladder and excreted urine was collected separately for each animal and the volume measured in 30 minute intervals. After a constant urine flow was achieved, test substances were administered by stomach tube. The diuretics were diluted with saline solution so that a constant volume of 25 ml/kg was reached. Three animals received the test substances and two served as controls. The lowest dose of the diuretics administered was 1.56 mg/kg. Dosages were increased by a factor of 2 up to 50 mg/kg.

[3] = Toxicity (general statement); details: in vivo
mice = experiment: Acute toxicity in mice, intragastric; assay type: in vivo, mouse; details: aqueous solution, within 48 hours
rats = details: rat, in vivo
[4] = test system: potassium excretion in dogs; experiment: Influence on potassium excretion (clearance experiments); assay type: in vivo, dog; details: anesthetized dogs, with higher amounts of sodium excreted
Experimental: Animals were anesthetized by 30.0 mg/kg pentobarbital intravenously. At the beginning of the experiment one saline solution was infused within 1 hour. In the urine which was collected by using a bladder catheter besides other parameters potassium and sodium concentrations were determined by flame photometry.

Compound	LD50 (in vivo) [mg/kg]	diuretic activity compared with 3282 [1]	urinary excretion / urinary flow increased to [1] [ml/minute per animal]	dose dependency of diuretic effect, r [1]	maximal achievable effect on the diuresis (urine excretion) [2] [ml/animal/min]	effect of dose increase on urine excretion ([2]; above 25.0 mg/kg)	acute toxicity (in words) [3]	dosage up to which none of the animals died (mice)	dosage up to which no deaths were seen (rats)	increase of potassium excretion, Furosemide versus […] [4]
CCOC(=O)/C=C1\SC(N2CCCCC2)C(=O)N1C (stereo not drawn) [Etozolin, ethyl-3-methyl-4-oxo-5-piperidino-Δ^2,α -thiazolidineacetate]	56.6	far less active	2.25	0.5583	7.8	does not result in a further increase of urine excretion				
CN1C(=O)C(N2CCCCC2)SC1=CC(=O)O (stereo not shown) [Example 3282, (Z)-3-Methyl-4-oxo-5N-piperidino-thiazolidin-2-ylidene-acetic acid]			16	0.8799	10.9		very favorable	≥ 2,250 mg/kg	≥ 1,000 mg/kg	by far more increased with Furosemide than with 3282
